Each structure is given as a SMILES string. The source made the active and inactive calls.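 Rule for the calls: active = compounds whose thermal stabilization response is above zero, meaning they raise the protein's melting point; inactive = the rest.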

For the experiment, the target named is Beta-adrenergic receptor kinase 1 (Homo sapiens) (UniProt P25098). Nature of the experiment: ligand-induced GRK2 thermal stabilization – biophysical, Thermofluor, set 1, orthogonal assay for GRK2 aptamer-displacement inhibitor project (AID 588428). As to conditions: purified GRK2 thermal shift, ANS fluorescence; at 200 µM; hits give high values. (In general: In DSF a fluorescence change marks the thermal transition of the protein.)
Chain of Beta-adrenergic receptor kinase 1 (Homo sapiens) (P25098 whole entry, looked up): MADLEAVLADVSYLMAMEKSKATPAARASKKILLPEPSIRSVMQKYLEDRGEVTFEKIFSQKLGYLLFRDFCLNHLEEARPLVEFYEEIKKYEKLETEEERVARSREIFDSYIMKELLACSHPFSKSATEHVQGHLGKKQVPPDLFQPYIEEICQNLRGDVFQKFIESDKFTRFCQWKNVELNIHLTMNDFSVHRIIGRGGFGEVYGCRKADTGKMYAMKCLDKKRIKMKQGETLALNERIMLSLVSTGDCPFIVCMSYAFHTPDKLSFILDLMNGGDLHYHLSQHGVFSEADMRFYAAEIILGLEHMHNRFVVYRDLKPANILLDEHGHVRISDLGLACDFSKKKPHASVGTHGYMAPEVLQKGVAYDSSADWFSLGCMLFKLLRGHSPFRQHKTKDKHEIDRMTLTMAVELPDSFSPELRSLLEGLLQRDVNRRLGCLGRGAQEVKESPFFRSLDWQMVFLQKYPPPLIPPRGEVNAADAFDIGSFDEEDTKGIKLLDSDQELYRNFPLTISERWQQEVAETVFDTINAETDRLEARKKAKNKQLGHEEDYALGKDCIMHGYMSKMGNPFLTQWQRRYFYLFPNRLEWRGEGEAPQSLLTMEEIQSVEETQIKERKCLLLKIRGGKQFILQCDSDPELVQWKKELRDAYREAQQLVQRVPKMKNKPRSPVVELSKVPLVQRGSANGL
In the case of `Cc1cccc(N2CCN(C(=O)CCS(=O)(=O)c3ccc(Br)cc3)CC2C)c1` (stereo not given), the thermal stabilization response is -5.78% (inactive).
Consider `Cc1cc2ccccc2n1CCNC(=O)c1cccs1`, for which the thermal stabilization response was -176% (inactive).
On to `O=C(O)C1CC(=O)N(c2ccc3c(c2)OCCO3)C1` (stereo not given), for which the thermal stabilization response is -152% (inactive).
On to `CCOc1ccc(CCNC(=O)CCS(=O)(=O)c2ccc(Br)cc2)cc1OCC`, for which the thermal stabilization response is -112% (inactive).
Under `O=C(CCS(=O)(=O)c1ccc(Br)cc1)Nc1cc(F)ccc1F` stands -75% (inactive); under `CCc1ccccc1NC(=O)CCS(=O)(=O)c1ccc(Br)cc1`, -35.6% (inactive).
The result for `Cc1ccccc1NC(=O)CCS(=O)(=O)c1ccc(Br)cc1` reads 108%; that for `COc1ccc(CNC(=O)CCS(=O)(=O)c2ccc(Br)cc2)cc1`, -114% (inactive); that for `Cc1cc(=O)[nH]c(SCC(=O)NCc2ccco2)n1`, -79.1% (inactive).
Under `O=C(CCS(=O)(=O)c1ccc(Br)cc1)NCCc1ccc(Cl)cc1` stands -53% (inactive).
